In experiment [1] the target is T1, S-SMase (Mus musculus, UniProt Q04519).
T1 construct: endogenous in cells; host or cells: J774.A1 macrophages, serum-free conditioned medium
T1 sequence (Q04519 45-627): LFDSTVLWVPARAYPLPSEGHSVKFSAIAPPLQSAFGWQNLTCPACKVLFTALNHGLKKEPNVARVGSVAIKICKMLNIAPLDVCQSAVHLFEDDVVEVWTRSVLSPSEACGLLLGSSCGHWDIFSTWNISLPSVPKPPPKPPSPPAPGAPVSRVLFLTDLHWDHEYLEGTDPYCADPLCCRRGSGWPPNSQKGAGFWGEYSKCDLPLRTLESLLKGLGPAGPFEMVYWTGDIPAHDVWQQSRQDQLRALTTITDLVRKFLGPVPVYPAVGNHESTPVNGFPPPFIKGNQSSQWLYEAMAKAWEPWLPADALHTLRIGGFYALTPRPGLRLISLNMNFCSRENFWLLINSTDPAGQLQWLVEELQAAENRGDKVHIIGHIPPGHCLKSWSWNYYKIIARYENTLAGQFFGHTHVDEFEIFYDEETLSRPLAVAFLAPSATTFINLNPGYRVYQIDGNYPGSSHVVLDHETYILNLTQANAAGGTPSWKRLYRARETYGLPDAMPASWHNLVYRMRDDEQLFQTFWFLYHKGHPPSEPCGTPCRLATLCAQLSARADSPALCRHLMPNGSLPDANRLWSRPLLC
Put plainly: SMase assay of conditioned medium from J774 macrophages (SM micelles, pH 5.0). The experiment is classed as biochemical. The conditions noted are these: 1,10-phenanthroline alone. Here is the method: FIGS. 14A-B. Sequential chelation and addition of Zn^2+ to secreted and intracellular SMase. Serum-free conditioned medium and a cell homogenate from J774 macrophages were prepared as described in “Experimental Procedures”. FIG. 14A, conditioned medium (CM) was assayed for SMase activity using 250 nM [^3H]sphingomyelin in Triton X-100 micelles in the presence of either 5 mM EDTA (first bar) or 0.1 mM ZnCl2 (second bar) for 1 h at 37° C. at pH 5.0. An aliquot of the Zn-activated conditioned medium was then incubated for 18 h in the presence of 10 mM EDTA, 10 mM 1,10-phenanthroline, and 0.6% Triton X-100 at 4° C. (EDTA PHNANTH) and then assayed for SMase activity (third bar). After chelation, a portion of this partially inactivated conditioned medium was then dialyzed against zinc-containing buffer C (150 mM NaCl, 10 mM Tris-HCl, 1 mM ZnCl2, 0.6% Triton X-100, pH 7.4) for 18 h and then assayed for SMase activity (fourth bar). FIG. 14B, an aliquot of cell homogenate (Cell Homgn) was assayed for SMase activity in the presence of assay buffer alone (first bar), 5 mM EDTA (second bar), or 0.1 mM ZnCl2 (third bar). Another aliquot of cell homogenate was incubated for 8 h in the presence of 10 mM EDTA, 10 mm 1,10-phenanthroline, and 0.6% Triton X-100 (EDTA PHNANTH) at 4° C. and then assayed for SMase activity (fourth bar). An aliquot of this chelator-treated cell homogenate was then dialyzed against zinc-containing buffer C for 18 h and then assayed for SMase activity (fifth bar).
(§1) SMase Assay—As previously described (Schissel et al., 1996), the standard 200-μl assay mixture consisted of up to 40 μl of sample (conditioned media or homogenized cells; see above) and a volume of assay buffer (0.1 M sodium acetate, pH 5.0) to bring the volume to 160 μl. […] The ceramide spots were scraped and directly counted to quantify [^3H]ceramide. Typically, the assay reactions contained approximately 20 μg of cellular homogenate protein and a volume of conditioned media derived from a quantity of cells equivalent to approximately 50 μg of cellular protein.

The target of a further experiment is T2, L-SMase (Mus musculus, UniProt Q04519).
T2 construct: endogenous in cells; host or cells: J774.A1 macrophages, sonicated cell homogenate
T2 sequence (Q04519 45-627): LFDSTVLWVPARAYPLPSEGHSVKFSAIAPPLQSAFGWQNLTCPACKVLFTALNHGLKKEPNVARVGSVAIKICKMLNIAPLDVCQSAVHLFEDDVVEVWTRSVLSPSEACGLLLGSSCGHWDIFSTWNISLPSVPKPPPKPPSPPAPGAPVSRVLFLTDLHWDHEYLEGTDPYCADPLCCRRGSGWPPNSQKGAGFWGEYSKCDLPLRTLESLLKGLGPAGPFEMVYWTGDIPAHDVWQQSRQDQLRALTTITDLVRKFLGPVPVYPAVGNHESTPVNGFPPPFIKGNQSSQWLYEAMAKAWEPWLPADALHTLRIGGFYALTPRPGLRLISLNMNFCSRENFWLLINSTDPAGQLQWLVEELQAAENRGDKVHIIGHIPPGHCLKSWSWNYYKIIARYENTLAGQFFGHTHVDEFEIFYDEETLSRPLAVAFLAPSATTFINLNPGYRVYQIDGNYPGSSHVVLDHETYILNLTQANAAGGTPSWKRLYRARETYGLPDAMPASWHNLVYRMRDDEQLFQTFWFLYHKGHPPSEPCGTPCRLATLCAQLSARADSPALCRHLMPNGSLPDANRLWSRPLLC
In words: SMase assay of cell homogenate from J774 macrophages (SM micelles, pH 5.0). Particulars: 1,10-phenanthroline alone. The experiment is classed as biochemical. As to the method:
FIGS. 14A-B. Sequential chelation and addition of Zn^2+ to secreted and intracellular SMase. Serum-free conditioned medium and a cell homogenate from J774 macrophages were prepared as described in “Experimental Procedures”. FIG. 14A, conditioned medium (CM) was assayed for SMase activity using 250 nM [^3H]sphingomyelin in Triton X-100 micelles in the presence of either 5 mM EDTA (first bar) or 0.1 mM ZnCl2 (second bar) for 1 h at 37° C. at pH 5.0. An aliquot of the Zn-activated conditioned medium was then incubated for 18 h in the presence of 10 mM EDTA, 10 mM 1,10-phenanthroline, and 0.6% Triton X-100 at 4° C. (EDTA PHNANTH) and then assayed for SMase activity (third bar). […]
as §1

Experiment [2] concerns the target T3, S-SMase (Homo sapiens, UniProt P17405).
T3 sequence (P17405 47-631): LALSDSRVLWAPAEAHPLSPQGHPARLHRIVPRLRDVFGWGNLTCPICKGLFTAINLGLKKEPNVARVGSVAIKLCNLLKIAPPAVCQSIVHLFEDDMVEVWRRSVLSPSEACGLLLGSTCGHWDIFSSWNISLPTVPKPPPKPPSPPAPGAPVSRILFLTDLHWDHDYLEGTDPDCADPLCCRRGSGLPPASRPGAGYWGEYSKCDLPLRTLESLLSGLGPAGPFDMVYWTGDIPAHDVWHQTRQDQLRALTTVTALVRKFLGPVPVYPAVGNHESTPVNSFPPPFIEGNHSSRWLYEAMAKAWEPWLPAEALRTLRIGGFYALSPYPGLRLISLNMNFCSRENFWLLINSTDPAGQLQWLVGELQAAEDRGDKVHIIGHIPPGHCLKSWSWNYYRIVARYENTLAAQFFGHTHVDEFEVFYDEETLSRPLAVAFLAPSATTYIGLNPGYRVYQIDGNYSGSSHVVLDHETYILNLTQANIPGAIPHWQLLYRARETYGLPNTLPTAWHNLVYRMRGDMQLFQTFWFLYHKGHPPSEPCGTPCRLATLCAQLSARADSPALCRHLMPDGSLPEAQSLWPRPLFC
In words: Zn2+ activation of S-SMase in presence of zinc-metalloproteinase inhibitors. The experiment is classed as biochemical. Here is the method: as §1, with “μl. The reaction was initiated by the addition of 40 μl substrate (50 pmol [^3H]sphingomyelin) in 0.25 M sucrose containing 3% Triton X-100 (final concentration of Triton X-100 in the 200-μl assay mix=0.6%). When added, the final concentrations of EDTA and Zn^2+ were 5 mM and 0.1 mm, respectively, unless indicated otherwise.” for “μl.”
One question was how L- and S-SMase acquire their apparent differences in zinc-dependency. One explanation would be that the secreted form requires a Zn^2+-dependent co-factor. Because many lysosomal enzymes undergo proteolytic activation (Hasilik, 1992), an obvious candidate for a Zn^2+-dependent co-factor would be a zinc-metalloproteinase. The results of five experiments, however, ruled out this possibility. First, Zn^2+-activated S-SMase can be subsequently inactivated by Zn^2+-chelation (see below); reversibility of Zn^2+-induced activation is not consistent with proteolytic activation. […] Third, mammalian zinc-metalloproteinases require Ca^2+ as well as Zn^2+, for activity (Reynolds, 1996), whereas Ca^2+ is not a requirement for the activation of S-SMase (Schissel et al., 1996).

For experiment [3], the system named is S-SMase secretion by HUVECs. In words: Cytokine regulation of S-SMase secretion by HUVECs (SMase activity in conditioned media). The experiment is classed as cell-based, human. The conditions noted are these: 18 h, interferon-β 1000 units/ml, IL-4 10 ng/ml.
Experiment [4] concerns the target T3, S-SMase. In words: S-SMase treatment of [3H]SM-LDL and [3H]SM-emulsions at pH 7.4. Format: biochemical. The arrangement: endogenous in cells; host or cells: primary HUVEC, 24-h serum-free conditioned medium. Here is the method:
[^3H]SM-emulsions. [^3H]SM-emulsions with a lipid composition similar to human LDL were prepared as follows: 5.4 mg cholesteryl oleate, 0.48 mg triolein, 1.08 mg free cholesterol, 2.04 mg phosphatidylcholine, 0.96 mg sphingomyelin, and 50 μCi [N-palmitoyl-9,10^−3H]sphingomyelin were all added in chloroform to a sonication vial and the solvent completely evaporated by exposure to a stream of nitrogen, followed by the high vacuum of a lyophilizer. The dried lipids were resuspended in 3 mL of buffer containing 150 mM NaCl, 0.3 mM EDTA pH 7.4 and sonicated under a stream of argon at 40° C. until translucent (approximately 90 min) The sonicated material was then centrifuged twice at 15,000×g to pellet any titanium shed from the sonication probe. SM-rich emulsions were prepared exactly as above except that 1.2 mg of phosphatidylcholine and 1.8 mg of SM were used, and sonication time was increased to 120 min. [^3H]SM-emulsions were enriched with apo CIII based on the method of Ahmad et al. (Ahmad et al., 1986). Briefly, [^3H]SM-emulsions (0.4 mL; 182 nmol SM) were incubated with 200 μg apo CIII (22.5 nmol) for 2 h at 40° C. A portion of the emulsions were re-isolated from free ape CIII using ultrafiltration (Clavey et al., 1995) as follows: the crude emulsion-apo CIII mixture was diluted to 2 mL with buffer containing 150 mM NaCl, 0.3 mM EDTA pH 7.4 and ultra filtered and concentrated to 0.2 mL using a CENTRICON® 30 (molecular weight cut-off=30,000); the concentrated emulsions were then diluted to 2 mL and the process was repeated 5 times. [^3H]SM-emulsions run through the same enrichment and re-isolation protocols in the absence of apo CIII served as the control for the experiments in FIG. 11A.
S-SMase. The source of S-SMase was serum-free conditioned medium from DG44 CHO cells stably transfected with the human acid SMase cDNA (Schissel et al., 1996; Schuchman et al., 1991). […] Cells were plated in 100-mm dishes and cultured for 48 h in DMEM/FBS/PSG. The cells were then changed to low protein serum-free media for 12 h. washed 3 times with PBS, and finally incubated for 18 h in fresh serum-free media (6 mL per 100-mm dish) The “18-h conditioned medium” was then collected, centrifuged at 1000×g to pellet any cells and, except where indicated, ZnCl2 (final concentration=100 μM) was added to fully activate and stabilize S-SMase; this S-SMase-containing conditioned media was then used fresh to treat LDL and lipid emulsions.
S-SMase Treatment of LDL and Emulsions. The standard incubation mixture consisted of up to 50 μl of sample (LDL or emulsions). […] The ceramide spots were scraped and directly counted to quantify [^3H]ceramide. In all other samples ceramide was determined as described above.

Consider `c1cnc2c(c1)ccc1cccnc12` [1,10-phenanthroline], for which the “inhibition of S-SMase” value against S-SMase [1] was “does not inhibit”. Moreover, the “inhibition of L-SMase” value against L-SMase was “does not inhibit”.
Take “HO—NH—CO—CH2—CH(CH2CH(CH3)2)—C)-Nal-Ala-NH—CH2—CH2—NH2”: at S-SMase [2], the “effect on ability of Zn2+ to activate S-SMase” value (“effect on ability of Zn2+” for short) was “did not affect”.
For “HS—CH2—R—CH(CH2—CH(CH3)2)—C)-Phe-Ala-NH2”, the “effect on ability of Zn2+” value at S-SMase [2] is “did not affect”.
Turning to IL-4: human recombinant interleukin-4, the “accumulation of S-SMase in conditioned media (qualitative)” value in experiment [3] is “no effect”.
On to “TIMP-1: tissue inhibitor of metalloproteinase-1, inhibitor of zinc-metalloproteinases”, for which the “effect on ability of Zn2+” value in the experiment with S-SMase [2] is reported as “did not affect”.
For the molecule “apo CIII: human native apolipoprotein CIII”, the “S-SMase hydrolysis of [3H]SM-emulsions versus control emulsions” value in the experiment with S-SMase [4] (emulsion-bound + free apo CIII) is listed as “two-fold greater”; in the experiment with S-SMase [4] (emulsion-bound apo CIII only) it was “approximately ten-fold more”.
lysophosphatidylcholine: the “stimulation of S-SMase hydrolysis of [3H]SM-LDL” value at S-SMase [4] (exogenously added) was 2-3 fold.

B1: sPLA2: human recombinant nonpancreatic soluble PLA2 (protein, UniProt P14555 21-144, looked up)
Phospholipase A2, membrane …: NLVNFHRMIKLTTGKEAALSYGFYGCHCGVGGRGSPKDATDRCCVTHDCCYKRLEKRGCGTKFLSYKFSNSGSRITCAKQDSCRSQLCECDKAAATCFARNKTTYNKKYQYYSNKHCRGSTPRC
In the case of B1, the “S-SMase hydrolysis of [3H]SM-LDL after treating the LDL with sPLA2” value with S-SMase [4] (LDL pretreated 14 h at 37° C.) is “markedly enhanced”.

These data come from US6613322B2, “Method for treating a subject suffering from conditions associated with an extracellular zinc sphingomyelinase” (The Trustees of Columbia University in the City of New York, priority 1997, dated 2003).
